Test results reported in patent US4235916A, “2-Methylthio-6-fluoro-9-(1-methyl-4-piperidylidene)-thioxanthene and salts thereof, neuroleptic compositions and method of use” (Kefalas A/S, priority 1977, dated 1980).
pIC50: −log10 of the molar value. Like-named read-outs stand apart in the source and are kept apart here.

Legend:
methylphenidate = experiment: Methylphenidate antagonism; format: in vivo, male; settings: Mus musculus, ip, mice, i.p.
Description: Methylphenidate antagonism (ED50 mg/kg i.p.)
Perspex observation cages without bottom and lid, consisting of 5 sections each measuring 12×25×30 cm. White corrugated paper. Mice, male, 18-25 g.
3×2 mice are used for each dose level. Two or 24 hours after injection of test substance, methylphenidate, 60 mg/kg, is injected s.c.
After administration of methylphenidate the mice are placed in the observation cages, 2 in each cage, where they remain for exactly 1 hour. The cages are placed on corrugated paper, the corrugations facing upwards. It is examined whether the mice have been biting the corrugated paper or not. […] If one or more of the control pairs have not been biting, the test has to be repeated on a new set of mice.
The result is stated in fractions: 0/3, 1/3, 2/3 and 3/3 where 0, 1, 2 and 3 are the number of pairs which have not been biting on receipt of the dose in question.

[1] = Determination of LD50 (acute toxicity, i.p.); format: in vivo, Mice, male; settings: for LD50 at 24 h: mouse, in vivo, ip, mice, i.p., deaths after 24 hours; for acute toxicity, in words: compared with Lu 14-089 or related thioxanthene derivatives
Description: Determination of LD50 (mg/kg i.p.)
Mice, male, weighing from 18-25 g, fasted from 4 p.m. the day before test day.
Four treated groups and one control group, each of 4 mice, are used.
The test substance is suspended in methyl cellulose 0.5% and injected intraperitoneally. The animals are placed in Macrolon cages type II. […] Furthermore the results are recorded according to the punching instructions as fractions: 0/4, 1/4, 2/4, 3/4 and 4/4 where 0, 1, 2, 3 and 4 indicate the number of deaths after the dose in question.

physostigmine = experiment: Physostigmine antagonism; format: in vivo, male; settings: Mus musculus, ip, 0.5 h; mice, i.p., physostigmine 2 mg/kg i.p. thirty minutes after test substance; survivors after 60 minutes; read-out: Physostigmine antag. (ED50)
Description: Physostigmine antagonism (ED50 mg/kg i.p.)
Scopolamine bromide 0.04 mg/ml or 0.1 mg/ml.
Physostigmine salicylate 0.2 mg/ml.
Five mice are used for each dose level. One group, serving as positive control, is injected with scopolamine 0.4 mg/kg i.p. Thirty minutes after i.p. administration of test substance (or scopolamine), physostigmine 2 mg/kg, is injected i.p. This dose of physostigmine induces tremor with salivation, clonic convulsions, coma and death. After 60 minutes the number of survivors are counted.
The results are recorded in fractions: 0/5, 1/5, 2/5, 3/5, 4/5 and 5/5 where 0, 1, 2, 3, 4 and 5 inducate the number of animals in which the test compound has prevented the occurrence of death.

[2] = Catalepsy wire mesh, rat, max.; format: in vivo, male; settings: rats; for Ratio Catalep./Amphetam. antag.: catalepsy ED50 (s.c.) / amphetamine antagonism ED50 (i.p.); for ED50: rat, in vivo, sc, wire mesh, maximum effect within first 6 hours
Description: Catalepsy wire mesh, rat, max. (ED50 mg/kg s.c.)
A vertical wire netting (50 cm×49 cm). The meshes (openings) of the netting are square (1 cm×1 cm). The wire diameter is 2 mm.
The animals are labeled and used in groups of five. The test substance is injected subcutaneously (s.c.) (5 ml/kg) at 4 dose levels selected from the fixed dose scale.
The animals are placed in the middle of the vertical wire netting 60, 120, 180, 240, 300 and 360 minutes after injection of the test compound. The animals are considered cetaleptic when they remain immobile during a period of 15 seconds. This cataleptic reaction is designated +. If the rats are "atonic" and passively slides down the wire mesh they are considered not cataleptic. If the animals climb up and down the wire mesh they are nor cataleptic. In both situations the designation - is used.

amphetamine = experiment: Amphetamine antagonism; format: in vivo, Rats, male; settings: for ED50: Rattus norvegicus, ip, 2 h, rats, i.p., amphetamine sulphate 13.6 mg/kg i.v. two hours later, read-out: Amphetamine antag. (ED50)
Description: Amphetamine antagonism (ED50 mg/kg i.p.)
Perspex observation cages without bottom and lid, consisting of 5 sections each measuring 12×25×30 cm.
The test substance is given i.p. in a reasonable dose based on the determined LD50. Two hours later an intravenous injection of amphetamine sulphate 13.6 mg/kg (~10 mg/kg amphetamine base) is given, after which the rats are placed individually in the cages. The cages are placed on white corrugated paper. Five rats are used for each dose level. Observations are made after 55 minutes and 65 minutes--observation time: 1 minute. The animals are observed for stereotypy (movements of the head, compulsive gnawing). […] If the compound has full antagonistic effect another group of rats is used at a lower dose. […] The result is stated as fractions: 0/5, 1/5, 2/5, 3/5, 4/5 and 5/5, where 0, 1, 2, 3, 4 and 5 indicate the number of rats which have not shown stereotypy at the dose in question. The results are calculated as ED50 in mg/kg.

apomorphine = experiment: Apomorphine vomit; format: in vivo, Adult Beagle dogs; settings: Canis lupus familiaris, sc, 4 h; Beagle dogs, s.c., four hours before apomorphine 25 μg/kg i.v.; calculated ED50 approximate; read-out: Apomorph. Vomit (ED50)
Description: Adult Beagle dogs of either sex, housed individually in kennels or in cages.
2-4 dogs are used per dose level.
The test compound is injected subcutanelusly in the back of the neck four hours before apomorphine, which is given intravenously in a dose of 25 μg/kg (volume 0.1 ml/kg).
The results are given as fractions, i.e. 0/2, 1/2 or 2/2, stating the number of dogs protected against vomiting over to the number of dogs. On account of the small number of animals the calculated ED50 should be considered approximate.

Muscarinic = Muscarinic affinity binding (3H-PrBCM, whole brain P2 fraction); design: species or system Rats; settings: displacement of specific 3H-PrBCM binding by 50%; rat brain, pH 7.4, 30° C.; read-out: Muscarine affinity (IC50)
Description: Muscarinic affinity binding
Sodium thiosulphate 10 mM (2.48 g/1000 ml) ^3 H-PrBCM (N-2'-chloroethyl-N-[2", 3"-^3 H2 ] propyl-2-aminoethylbenzilate,spec. act. ~28 Ci/mM).
A rat is killed by a blow on the head and exsanguinated. The whole brain is removed and homogenized in 10 volumes of ice cold 0.32 M sucrose with a hand homogenizer. The homogenate is centrifuged at 600 g for 10 minutes (4° C.) and the pellet discarded. The supernatant is then centrifuged at 25000 g for 55 minutes (4° C.). The pellet fraction (P2) is resuspended in the same volume of 0.32 M sucrose as previously used and stored on ice.
The aziridinium ion of ^3 H-propylbenzilyllcholine mustard (^3 H-PrBCM) is prepared by cyclization at a concentration of 130 nM in 15 mM Na-phosphate buffer (pH 7.4) for 50 minutes at 20° C. The reaction is terminated by addition of 100 volumes of ice cold buffer.
The incubation is continued for 15 minutes and stopped by addition of 20 ml 100 mM phosphate buffer containing 10 mM sodium thiosulphate. The samples are filtered through Whatman GF/C glass fiber filters and washed with 30 ml ice cold 100 mM phosphate buffer. The filters with synaptosomes are transferred to scintillation vials and the radio-activity measured by liquid scintillation counting after addition of 10 ml Instal-Gel (Packard Inst.). All experiments are performed in triplicate.
Specific ^3 H-PrBCM binding is defined as the total binding minus the binding in the presence of 20 μM atropine.

[3] = Neuroleptic and pharmacological profile evaluated by standard test methods (overall statements); format: in vivo
Text: The pharmacological testing of 2-methylthio-6-fluoro-9-(1-methyl-4-piperidylidene)-thioxanthene, in the following called Lu 14-089 for short, and its non-toxic acid addition salts consisted of standard and reliable tests.

[4] = Administration to human beings; settings: in vivo
Text: Lu 14-089 as well as the non-toxic acid addition salts thereof may be administered to animals such as dogs, cats, horses sheeps or the like, including human beings, both orally and parenterally, and may be used for example in the form of tablets capsules, powders, syrups, suppositories, or in the form of the usual sterile solutions for injection.

[5] = methylphenidate 60 mg/kg s.c. 2 h after test substance, read-out: Methylphenidate antag. 2h (ED50)
[6] = methylphenidate 60 mg/kg s.c. 24 h after test substance, read-out: Methylphenidate antag. 24h (ED50)

Compound | ED50 (methylphenidate; [5]) | LD50 at 24 h [1] | ED50 (physostigmine) | Ratio Catalep./Amphetam. antag. [2] | ED50 [2] | ED50 (amphetamine) | ED50 (methylphenidate; [6]) | ED50 (apomorphine) | pIC50 (Muscarinic) | acute toxicity, in words [1] | neuroleptic activity as expressed by the amphetamine antagonism, in words (amphetamine; compared with Lu 14-089) | neuroleptic effects, in words ([3]; compound and its non-toxic acid addition salts) | anticholinergic effects, in words ([3]; in vivo) | extrapyramidal side effects, in words ([3]; pharmacological profile, standard test methods) | Results upon administration to human beings [4]
CN1CCC(=C2c3ccc(F)cc3Sc3ccc(Cl)cc32)CC1 [Lu 12-304, 2-Chloro-6-fluoro-9-(1-methyl-4-piperidylidene)-thioxanthene] | 4.6 mg/kg | 187 mg/kg | 8.9 mg/kg | 0.62 | 3.4 mg/kg | 5.5 mg/kg | – | – | – | – | – | – | – | – | –
CN1CCC(=C2c3ccc(F)cc3Sc3ccc(C(F)(F)F)cc32)CC1 [Lu 12-312, 2-Trifluoromethyl-6-fluoro-9-(1-methyl-4-piperidylidene)-thioxanthene] | 0.07 mg/kg | 188 mg/kg | 7.7 mg/kg | 0.12 | 0.067 mg/kg | 0.56 mg/kg | 2.1 mg/kg | 0.04 mg/kg | 7.74 | – | – | – | – | – | –
CN1CCC(=C2c3ccccc3Sc3ccc(C(F)(F)F)cc32)CC1 [Lu 13-003, 2-Trifluoromethyl-9-(1-methyl-4-piperidylidene)-thioxanthene] | 0.15 mg/kg | 187 mg/kg | 4.6 mg/kg | 3.5 | 1.3 mg/kg | 0.37 mg/kg | – | – | 8.10 | – | – | – | – | – | –
CN1CCC(=C2c3ccccc3Sc3ccc(Cl)cc32)CC1 [Lu 13-016, 2-Chloro-9-(1-methyl-4-piperidylidene)-thioxanthene] | 1 mg/kg | 226 mg/kg | 4.4 mg/kg | 6.5 | 25 mg/kg | 3.9 mg/kg | > 20 mg/kg | – | 7.85 | higher acute toxicity | much lower neuroleptic activity | – | – | – | –
CSc1ccc2c(c1)C(=C1CCN(C)CC1)c1ccc(F)cc1S2 [Lu 14-089, 2-methylthio-6-fluoro-9-(1-methyl-4-piperidylidene)-thioxanthene] | 0.1 mg/kg | > 320 mg/kg | 7.2 mg/kg | 8.5 | 6.3 mg/kg | 0.74 mg/kg | 14 mg/kg | 0.014 mg/kg | 7.85 | low acute toxicity compared with related thioxanthene derivatives | – | strong and relatively longlasting neuroleptic effects | strong anticholinergic effects | low extrapyrimidal side effects | very gratifying
CSc1ccc2c(c1)C(=C1CCN(C)CC1)c1ccccc1S2 [Lu 14-145, 2-Methylthio-9-(1-methyl-4-piperidylidene)-thioxanthene] | 1.4 mg/kg | 188 mg/kg | 4.9 mg/kg | – | > 20 mg/kg | > 20 mg/kg | 14 mg/kg | – | 7.89 | – | – | – | – | – | –
CN(C)CCCN1c2ccccc2Sc2ccc(Cl)cc21 [chlorpromazine] | 4 mg/kg | 226 mg/kg | > 40 mg/kg | – | 5.6 mg/kg | 7.1 mg/kg | 20 mg/kg | 0.36 mg/kg | – | – | – | – | – | – | –
CN(C)CC/C=C1/c2ccccc2Sc2ccc(Cl)cc21 [chlorprothixene] | 0.71 mg/kg | 226 mg/kg | 86 mg/kg | – | 4 mg/kg | 6.1 mg/kg | > 20 mg/kg | 0.9 mg/kg | – | – | – | – | – | – | –
OCCN1CCN(CCC=C2c3ccccc3Sc3ccc(Cl)cc32)CC1 [clopenthixol] | 1.2 mg/kg | 226 mg/kg | > 20 mg/kg | – | 0.95 mg/kg | 0.77 mg/kg | – | 0.04 mg/kg | – | – | – | – | – | – | –
CN1CCN(C2=Nc3cc(Cl)ccc3Nc3ccccc32)CC1 [clozapine] | > 160 mg/kg | > 320 mg/kg | 24 mg/kg | – | 85 mg/kg | > 40 mg/kg | – | ~4 mg/kg | – | – | – | – | – | – | –
OCCN1CCN(CCC=C2c3ccccc3Sc3ccc(C(F)(F)F)cc32)CC1 [flupentixol] | 0.2 mg/kg | 246 mg/kg | > 40 mg/kg | 0.36 | 0.25 mg/kg | 0.69 mg/kg | > 20 mg/kg | 0.02 mg/kg | 5.40 | – | – | – | – | – | –
OCCN1CCN(CCCN2c3ccccc3Sc3ccc(C(F)(F)F)cc32)CC1 [fluphenazine] | 0.04 mg/kg | 259 mg/kg | > 20 mg/kg | – | 0.099 mg/kg | 0.08 mg/kg | 3.6 mg/kg | 0.007 mg/kg | – | – | – | – | – | – | –
O=C(CCCN1CCC(O)(c2ccc(Cl)cc2)CC1)c1ccc(F)cc1 [haloperidol] | 0.06 mg/kg | 226 mg/kg | > 20 mg/kg | – | 0.21 mg/kg | 0.14 mg/kg | – | 0.01 mg/kg | – | – | – | – | – | – | –
